In PubChem BioAssay (NCI):
Several values for one entry are separate records, joined by “and”; a condition that tells them apart may be missing. Identical values can stand only once.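 Protocol summary: plate cells (96-well), add compound at 5 concentrations, incubate 48 h, interpolate endpoints linearly. GI50 marks 50% less growth. The concentration for full growth arrest is given as TGI.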

How the values were obtained:
Assay in all cases: NCI-60 cell line screen, 48 h
OVCAR-3 ovarian = tested on: OVCAR-3 ovarian
OVCAR-5 ovarian = tested on: OVCAR-5 ovarian
HT29 colon = tested on: HT29 colon
UACC-62 melanoma = tested on: UACC-62 melanoma
UO-31 renal = tested on: UO-31 renal
K-562 leukemia = tested on: K-562 leukemia
CAKI-1 renal = tested on: CAKI-1 renal
ACHN renal = tested on: ACHN renal
COLO 205 colon = tested on: COLO 205 colon

Structure (SMILES)	TGI (OVCAR-3 ovarian)	TGI (OVCAR-5 ovarian)	TGI (HT29 colon)	TGI (UACC-62 melanoma)	TGI (UO-31 renal)	TGI (K-562 leukemia)	TGI (CAKI-1 renal)	TGI (ACHN renal)	TGI (COLO 205 colon)	GI50 (OVCAR-3 ovarian)	GI50 (OVCAR-5 ovarian)	GI50 (HT29 colon)	GI50 (UO-31 renal)	GI50 (CAKI-1 renal)	GI50 (ACHN renal)	GI50 (COLO 205 colon)	GI50 (UACC-62 melanoma)	GI50 (K-562 leukemia)
Cc1ccc(NC(c2ccccc2)c2ccc3cccnc3c2O)cc1 (stereo not drawn)	7.58 µM	22.2 µM	13.6 µM	18.3 µM	16 µM	30 µM	16.4 µM	15.5 µM	16.5 µM	–	–	–	–	–	–	–	–	–
COc1ccc(C(=O)/C=C/c2ccc(O)c(O)c2F)c(OC)c1	–	23.3 µM and 34.8 µM	23.8 µM and 17.7 µM	16.8 µM and 21.9 µM	16.3 µM and 38.4 µM	75 µM and 18.1 µM	75 µM and 44.9 µM	25.6 µM and > 100 µM	22.1 µM and 27.2 µM	2.63 µM	15.3 µM	4.03 µM	7.04 µM	5.73 µM	5.49 µM	12.9 µM	–	–
CC(C)C[C@@H](NC(=O)[C@@H](Cc1ccccc1)NC(=O)c1cnccn1)B1O[C@H]2[C@H](O)[C@@H](C(=O)NCCCC[C@@H]3NC(=O)[C@@H](Cc4ccccc4)NC(=O)[C@H](CC(=O)O)NC(=O)CNC(=O)[C@H](CCCN=C(N)N)NC3=O)O[C@@H](CN)[C@H]2O1	0.0106 µM and 0.0104 µM	0.0978 µM and 0.799 µM	0.0325 µM and 0.00763 µM	0.0408 µM and 0.014 µM	0.089 µM and 0.036 µM	–	0.0525 µM and 0.0905 µM	0.494 µM and 0.153 µM	0.373 µM and 0.119 µM	0.00339 µM and 0.005 µM	0.0135 µM and 0.0196 µM	0.00418 µM and 0.005 µM	0.00868 µM and 0.005 µM	0.00768 µM and 0.0148 µM	0.00449 µM and 0.005 µM	0.0262 µM and 0.005 µM	0.00439 µM and 0.005 µM	0.0088 µM and 0.005 µM
O=C1c2ccccc2-c2c1c1ccccc1c(=O)n2CCCNCCCn1c2c(c3ccccc3c1=O)C(=O)c1ccccc1-2	16.5 µM	6.08 µM	> 50 µM	16.4 µM	> 50 µM	–	17.5 µM	8.81 µM	> 31.1 µM	5.42 µM	3.04 µM	0.997 µM	2.16 µM	8.12 µM	0.814 µM	10.6 µM	7.52 µM	4.07 µM
COc1ccc(CN2C(=O)/C(=C\c3cc(OC)c(OC)c(OC)c3)c3cc(OC)ccc32)cc1	4.7 µM	5.51 µM	4.45 µM	4.19 µM	10.7 µM	> 35.5 µM	> 22.2 µM	3.2 µM	6.51 µM	2.14 µM	2.47 µM	2.19 µM	2.67 µM	2.95 µM	1.73 µM	2.59 µM	1.71 µM	3.13 µM
N#CC1=C(N)Oc2cc3c(cc2C1c1cccs1)OCO3 (stereo not drawn)	0.644 µM	> 85.4 µM	15.2 µM	> 100 µM	> 100 µM	> 100 µM	> 100 µM	> 100 µM	1.66 µM	0.236 µM	2.82 µM	0.377 µM	1.24 µM	0.542 µM	3.63 µM	0.366 µM	0.485 µM	0.205 µM
CCC1=C(C)/C(=C/c2[nH]c(C)c(C(=O)CCCCC(=O)OC)c2C)N=C1c1ccc[nH]1	18.5 µM	> 67.2 µM	38.4 µM	38.9 µM	25.5 µM	16.7 µM	45.8 µM	31.1 µM	> 100 µM	3.64 µM	21.1 µM	5.11 µM	8.78 µM	20.6 µM	15.3 µM	12.6 µM	8.7 µM	3.47 µM
CCn1c(=O)c(-c2ccn[nH]2)cc2c(C)nc(N)nc21	> 100 µM	10.6 µM	> 100 µM	3.54 µM	3.72 µM	> 100 µM	–	> 100 µM	10.4 µM	1.15 µM	0.539 µM	1.53 µM	0.291 µM	–	1.49 µM	1.78 µM	0.687 µM	14.7 µM
O=C1c2ccccc2-c2c1c1ccccc1c(=O)n2Cc1ccco1	> 100 µM	> 100 µM	> 100 µM	> 100 µM	> 100 µM	> 100 µM	> 100 µM	–	> 100 µM	–	–	–	–	–	–	–	–	–
Nc1ccccc1C#CC#Cc1ccccc1N	36.3 µM	–	> 100 µM	25.3 µM	> 100 µM	> 100 µM	18.7 µM	22.9 µM	75.7 µM	2.85 µM	–	20.6 µM	8 µM	1.36 µM	10.6 µM	22.5 µM	11.8 µM	5.78 µM
CN1CCN(Cc2ccc(-c3cc4ncnc(Nc5ccc(OCc6cccc(F)c6)c(Cl)c5)c4s3)o2)CC1	8.01 µM	7.8 µM	4.3 µM	9.58 µM	7.37 µM	6.85 µM	7.98 µM	6.95 µM	8.66 µM	4.23 µM	3.91 µM	1.38 µM	3.3 µM	3.33 µM	3.26 µM	4.8 µM	4.97 µM	2.08 µM
CC(C)(C)[Si](C)(C)OCC1CCC(n2cnc3c(NC(=O)c4ccccc4)ncnc32)O1 (stereo not drawn)	28 µM	32.3 µM	33.6 µM	29.7 µM	3.16 µM	39.5 µM	46.9 µM	40.3 µM	35.6 µM	–	–	–	–	–	–	–	–	–
O=C(Nc1ccc(-c2nc3cc4ccccc4cc3[nH]2)cc1)c1cccc(Br)c1	10.3 µM	68.3 µM	11.9 µM	30.5 µM	36.1 µM	–	74.8 µM	31 µM	40 µM	3.64 µM	22.6 µM	2.77 µM	17.6 µM	27.5 µM	12.3 µM	8.87 µM	15.8 µM	–
CCCCCCCCCCCCCS(=O)(=O)O	> 100 µM	> 100 µM	> 100 µM	> 100 µM	> 100 µM	–	–	> 100 µM	> 100 µM	–	–	–	–	–	–	–	–	–
COC(=O)C1(C)C=C(Nc2ccccc2)C(=O)N1c1ccccc1 (stereo not drawn)	> 100 µM	> 100 µM	> 100 µM	> 100 µM	> 100 µM	> 100 µM	> 100 µM	> 100 µM	–	–	–	–	–	–	–	–	–	–
CCCCCCCCCCCCN1C(C)=CS/C1=C\C=C\c1scc(C)[n+]1CCCCCCCCCCCC	3.69 µM	9.43 µM	–	3.41 µM	12.4 µM	–	12.8 µM	10.4 µM	4.13 µM	1.24 µM	2.3 µM	–	2.4 µM	1.74 µM	1.84 µM	1.26 µM	1.1 µM	–
CCCc1c2c([nH]c(=O)c1C)C(=O)c1[nH]c(=O)c(C)c(CCC)c1C2=O	5.97 µM	> 100 µM	18.7 µM	–	> 100 µM	67.1 µM	–	47.6 µM	55.1 µM	–	–	–	–	–	–	–	–	–
OCCN(CCO)N=Nc1ccc(-c2nc3ccccc3[nH]2)cc1	25.7 µM	> 100 µM	–	> 100 µM	> 100 µM	> 100 µM	60.6 µM	> 100 µM	70.4 µM	11 µM	> 100 µM	–	43.8 µM	17 µM	35.6 µM	22.9 µM	35.2 µM	24 µM
CC(C(=O)N1C(=O)N(C(=O)C(C)C(O)c2ccccc2)C(c2ccccc2)C1c1ccccc1)C(O)c1ccccc1 (stereo not drawn)	31.5 µM	–	18.8 µM	40.5 µM	41.1 µM	41.6 µM	–	> 100 µM	28.1 µM	–	–	–	–	–	–	–	–	–
Cc1ccc(C)c(NC(=O)C(=O)C2C(=O)C3=C(CC2(C)C)Nc2ccccc2S3)c1 (stereo not drawn)	> 100 µM	> 100 µM	> 100 µM	> 100 µM	> 100 µM	–	> 100 µM	> 100 µM	> 100 µM	–	–	–	–	–	–	–	–	–
Oc1c(CN2CCC(N3CCOCC3)CC2)cc(Cc2cc(CN3CCC(N4CCOCC4)CC3)c(O)c3ncccc23)c2cccnc12	11.9 µM	> 100 µM	22.3 µM	5.29 µM	4.48 µM	–	21.2 µM	12.9 µM	10.6 µM	0.976 µM	2.14 µM	0.709 µM	0.366 µM	0.643 µM	0.481 µM	0.596 µM	0.434 µM	–
Cn1ccnc1C(=O)/C=C/c1ccc(CC(=O)Nc2ccc(Cl)cc2)cc1	> 25 µM	> 25 µM	> 25 µM	> 25 µM	> 25 µM	–	> 25 µM	> 25 µM	> 25 µM	1.03 µM	9.97 µM	0.889 µM	2.27 µM	13.5 µM	15 µM	9.44 µM	6.5 µM	–
Oc1ccc(C(c2ccccc2)(c2ccccc2)c2ccccc2)cc1	37.6 µM	28.1 µM	–	30.6 µM	26.9 µM	61.2 µM	29.6 µM	41.4 µM	29.8 µM	16.6 µM	14.4 µM	–	11.8 µM	14 µM	21.9 µM	15.5 µM	16 µM	24.9 µM
Cc1ccc(S(=O)(=O)N/N=C(\CCN2CCCC2)CC(c2ccccc2)c2c(O)c3ccccc3oc2=O)cc1 (stereo not drawn)	> 100 µM	> 100 µM	> 100 µM	> 100 µM	> 100 µM	> 100 µM	> 100 µM	> 100 µM	–	–	–	–	–	–	–	–	–	–
